SMILES strings stand for the structures. Values after ≈ are worked out from the molar mass of the structure shown.

One assay relates to neutrophils. In words: Inhibition of oxidative burst from neutrophils (fMLP-induced superoxide release). Type of assay: cell-based. To be noted: Neutrophil, reduction of superoxide formation, fMLP 0.2 μM, 0 to 100 μM compound; read-out: ED50 Respiratory Burst. The method, then:
During inflammation, neutrophils produce and release superoxide ions, otherwise known as oxidative burst response, causing cytotoxicity. […] The superoxide release assay is based on published protocols (Goldstein et al. (1975). J. Clin. Invest. 56(5): 1155-63). Briefly, cells were pre-incubated for 10 min at 37° C. with a mixture of cytochrome c (75 μM final concentration), cytochalasin B (5 μg/ml) with or without superoxide dismutase (SOD) (10 μg/ml) and with or without AFC, AFC-Calcium complex, and AFC-Strontium complex (ranging from 0 to 100 μM). To initiate O2^− release, fMLP (0.2 μM) was added the cells are incubated for 10 min at 37° C. Samples were then placed on ice for 5 min and subsequently centrifuged at 3,000 rpm at 4° C. The supernatant was then analyzed by spectrophotometric measurement at 550 and 556.5 nm. The ED50 values for the reduction of superoxide formation, obtained with AFC, AFC-Calcium complex, and AFC-Strontium complex are depicted in Table 2.

In assay [1] the test system is Propionibacterium acnes (strain ATCC 6919). In words: Inhibition of Propionibacterium acnes growth. The assay is classed as cell-based. The conditions noted are these: Cutibacterium acnes, ATCC6919, 72 h, 72 hours, anaerobic, absorbance 600 nm, 1×10^6 CFU per mL; read-out: IC50 (inhibition of P. acnes growth). The method, then: The assay for the inhibition of growth of Propionibacterium acnes bacteria is described elsewhere (Nakatsuji et al., J Invest Dermatol, 2009, 129: 2480-2488). In brief, the strain ATCC 6919 of P. acnes (American Type Culture Collection, Manassas, Va.) was cultured on Brucella agar (R01254, Remel, Lenexa, Kans.) supplemented with 5% (v/v) defibrinated sheep blood, vitamin K (5 mg/ml, Remel, Lenexa, Kans.), and hemin (50 mg/ml, Remel, Lenexa, Kans.), under an anaerobic condition using Gas-Pak (BD, Sparks, Md.) at 37° C. A single colony was inoculated in Reinforced Clostridium Medium (Oxford, Hampshire, England) and cultured at 37° C. under the anaerobic condition. Each of the inventive complexes—AFC-Sr, AFC-Ag and AFC-Zn as well as AFC were dissolved in 100% (v/v) DMSO. Samples of each inventive complex, AFC and a solution of benzoyl peroxide (“BPO”) were then each incubated with an inoculum of P. acnes at a concentration of 1×10^6 CFU per mL in Reinforced Clostridium Medium in a 96-well microplate (100 μL per well) under anaerobic conditions for 72 hours. Samples of each were tested at final concentrations per well of 0.25 μg/mL, 0.5 μg/mL, 1.0 μg/mL, 1.95 μg/mL, 3.9 μg/mL, 7.8 μg/mL, 15.625 μg/mL, 31.25 μg/mL, 62.5 μg/mL, 125 μg/mL, 250μg/mL, and 500 μg/mL. A control well received only 5% (v /v) of DMSO in place of a sample of an inventive complex. After 72 hours incubation under anaerobic conditions, the P. acnes cultures in the 96-well microplate were mixed well and then absorbance readings at 600 nm were taken to determine bacterial growth. […] Growth curves of P. acnes determined for BPO, AFC, AFC-Sr, AFC-Ag and AFC-Zn are depicted in FIG. 3.

What is called IC50 is the concentration that gives 50% inhibition. On to `CC(=O)N[C@@H](CSC/C=C(\C)CC/C=C(\C)CCC=C(C)C)C(=O)O` [AFC, N-acetyl-S-farnesyl-L-cysteine, reference compound], for which, in the assay on neutrophils, the EC50 stood at 43.3 µM. Besides, the IC50 in assay [1] stood at 12.9 µg/mL (≈ 35.1 µM).
